Experimental data as given in patent US9499535B2, “Kinase inhibitors” (ORIGENIS GMBH, priority 2011, dated 2016).

How the values were obtained:
LRRK2 = LRRK2 (Homo sapiens, UniProt Q5S007); assay: LRRK2 assay (LanthaScreen Eu Kinase Binding Assay); conditions: 5 nM LRRK2, 10 nM tracer 236, RT 1 h; read-out: LRRK2 Activites: IC50
Outline: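 IC50 was derived from a sigmoidal dose-response fit with variable slope, plotting emission ratio against inhibitor concentration. The read-out is loss of FRET between a europium-labelled anti-tag antibody on the kinase and a tracer displaced by inhibitor.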

SYK kinase = biological target: T1, SYK kinase (Homo sapiens, UniProt P43405); assay: SYK assay (OMNIA Kinase Assay, Invitrogen); type: biochemical; conditions: apparent Ki calculated from the IC50 using the Cheng-Prusoff equation; 1 mM ATP, 10 μM Peptide Substrate; read-out: SYK Activities: Ki
T1 construct: purchased Invitrogen, Carlsbad
Outline: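 Reaction velocities were measured from kinetic fluorescence reads (360/485 nm, every 30 s over 30 min) of Mg2+-chelated SOX signal. Conditions were 1 mM ATP, 10 μM Omnia Tyr 7 peptide and 0.2 mM DTT at 30° C. Sigmoidal IC50 fits were converted to apparent Ki using Cheng-Prusoff.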

MYLK = MYLK (Homo sapiens, UniProt Q15746); assay: MYLK assay (LanthaScreen Eu Kinase Binding Assay); conditions: 5 nM MYLK, 30 nM tracer 236, RT 1 h; read-out: MYLK Activites: IC50
MYLK, sequence (Q15746 whole entry): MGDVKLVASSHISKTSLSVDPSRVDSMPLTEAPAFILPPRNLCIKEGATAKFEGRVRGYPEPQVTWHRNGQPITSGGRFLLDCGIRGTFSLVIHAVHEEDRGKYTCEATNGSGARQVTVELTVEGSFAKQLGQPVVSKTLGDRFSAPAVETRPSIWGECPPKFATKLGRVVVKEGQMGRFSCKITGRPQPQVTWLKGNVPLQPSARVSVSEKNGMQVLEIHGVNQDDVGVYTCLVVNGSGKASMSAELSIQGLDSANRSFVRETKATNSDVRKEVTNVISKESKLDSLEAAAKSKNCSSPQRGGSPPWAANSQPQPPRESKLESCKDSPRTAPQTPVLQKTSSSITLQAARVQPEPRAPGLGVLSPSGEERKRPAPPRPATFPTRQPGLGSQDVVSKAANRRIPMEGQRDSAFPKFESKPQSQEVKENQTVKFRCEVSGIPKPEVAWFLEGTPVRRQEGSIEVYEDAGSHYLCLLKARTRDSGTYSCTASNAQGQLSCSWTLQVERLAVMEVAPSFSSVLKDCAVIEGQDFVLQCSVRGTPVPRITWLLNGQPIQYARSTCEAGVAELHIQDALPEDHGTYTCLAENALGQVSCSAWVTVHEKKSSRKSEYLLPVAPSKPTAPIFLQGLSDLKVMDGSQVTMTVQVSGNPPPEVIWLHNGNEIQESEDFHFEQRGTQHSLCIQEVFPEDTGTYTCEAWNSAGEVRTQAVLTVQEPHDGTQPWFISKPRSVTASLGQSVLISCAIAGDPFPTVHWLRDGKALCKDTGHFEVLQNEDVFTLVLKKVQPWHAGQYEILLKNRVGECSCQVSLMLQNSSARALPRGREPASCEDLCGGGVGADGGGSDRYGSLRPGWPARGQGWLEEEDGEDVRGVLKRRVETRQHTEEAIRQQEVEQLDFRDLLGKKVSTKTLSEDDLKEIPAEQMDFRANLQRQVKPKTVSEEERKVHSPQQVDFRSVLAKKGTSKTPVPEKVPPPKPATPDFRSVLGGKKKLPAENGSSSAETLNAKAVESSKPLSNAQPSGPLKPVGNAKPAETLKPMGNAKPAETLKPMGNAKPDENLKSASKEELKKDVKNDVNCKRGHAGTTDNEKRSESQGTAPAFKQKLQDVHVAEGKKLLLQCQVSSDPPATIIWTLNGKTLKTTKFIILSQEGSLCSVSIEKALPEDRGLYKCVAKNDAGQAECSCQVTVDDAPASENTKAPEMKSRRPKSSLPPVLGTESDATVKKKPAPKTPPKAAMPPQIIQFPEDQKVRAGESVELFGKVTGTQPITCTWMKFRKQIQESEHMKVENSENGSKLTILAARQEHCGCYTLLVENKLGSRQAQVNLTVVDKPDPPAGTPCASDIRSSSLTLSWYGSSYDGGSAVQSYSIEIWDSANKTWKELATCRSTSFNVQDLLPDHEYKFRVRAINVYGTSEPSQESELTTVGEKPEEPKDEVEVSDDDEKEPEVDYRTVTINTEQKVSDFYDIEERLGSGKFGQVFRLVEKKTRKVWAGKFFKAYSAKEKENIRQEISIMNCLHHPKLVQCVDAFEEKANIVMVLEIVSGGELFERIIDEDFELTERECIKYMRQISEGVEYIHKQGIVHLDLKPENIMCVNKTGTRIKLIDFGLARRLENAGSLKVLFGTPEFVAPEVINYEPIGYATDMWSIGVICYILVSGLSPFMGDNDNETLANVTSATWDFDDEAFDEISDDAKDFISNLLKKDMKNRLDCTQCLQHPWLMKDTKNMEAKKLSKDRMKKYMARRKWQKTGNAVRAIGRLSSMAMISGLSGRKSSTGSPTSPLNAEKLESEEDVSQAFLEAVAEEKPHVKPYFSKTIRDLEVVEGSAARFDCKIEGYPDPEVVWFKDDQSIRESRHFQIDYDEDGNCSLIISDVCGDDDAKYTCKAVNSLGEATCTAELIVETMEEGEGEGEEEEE
Outline: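 TR-FRET tracer-displacement binding: 5 nM MYLK with 2 nM Eu-anti-GST antibody and 30 nM tracer 236 in kinase buffer A, 1 h at RT. The 665/615 nm emission ratio was plotted against inhibitor concentration; IC50 from variable-slope sigmoidal fit.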

LRRK2, sequence (Q5S007 970-2527 limits assumed): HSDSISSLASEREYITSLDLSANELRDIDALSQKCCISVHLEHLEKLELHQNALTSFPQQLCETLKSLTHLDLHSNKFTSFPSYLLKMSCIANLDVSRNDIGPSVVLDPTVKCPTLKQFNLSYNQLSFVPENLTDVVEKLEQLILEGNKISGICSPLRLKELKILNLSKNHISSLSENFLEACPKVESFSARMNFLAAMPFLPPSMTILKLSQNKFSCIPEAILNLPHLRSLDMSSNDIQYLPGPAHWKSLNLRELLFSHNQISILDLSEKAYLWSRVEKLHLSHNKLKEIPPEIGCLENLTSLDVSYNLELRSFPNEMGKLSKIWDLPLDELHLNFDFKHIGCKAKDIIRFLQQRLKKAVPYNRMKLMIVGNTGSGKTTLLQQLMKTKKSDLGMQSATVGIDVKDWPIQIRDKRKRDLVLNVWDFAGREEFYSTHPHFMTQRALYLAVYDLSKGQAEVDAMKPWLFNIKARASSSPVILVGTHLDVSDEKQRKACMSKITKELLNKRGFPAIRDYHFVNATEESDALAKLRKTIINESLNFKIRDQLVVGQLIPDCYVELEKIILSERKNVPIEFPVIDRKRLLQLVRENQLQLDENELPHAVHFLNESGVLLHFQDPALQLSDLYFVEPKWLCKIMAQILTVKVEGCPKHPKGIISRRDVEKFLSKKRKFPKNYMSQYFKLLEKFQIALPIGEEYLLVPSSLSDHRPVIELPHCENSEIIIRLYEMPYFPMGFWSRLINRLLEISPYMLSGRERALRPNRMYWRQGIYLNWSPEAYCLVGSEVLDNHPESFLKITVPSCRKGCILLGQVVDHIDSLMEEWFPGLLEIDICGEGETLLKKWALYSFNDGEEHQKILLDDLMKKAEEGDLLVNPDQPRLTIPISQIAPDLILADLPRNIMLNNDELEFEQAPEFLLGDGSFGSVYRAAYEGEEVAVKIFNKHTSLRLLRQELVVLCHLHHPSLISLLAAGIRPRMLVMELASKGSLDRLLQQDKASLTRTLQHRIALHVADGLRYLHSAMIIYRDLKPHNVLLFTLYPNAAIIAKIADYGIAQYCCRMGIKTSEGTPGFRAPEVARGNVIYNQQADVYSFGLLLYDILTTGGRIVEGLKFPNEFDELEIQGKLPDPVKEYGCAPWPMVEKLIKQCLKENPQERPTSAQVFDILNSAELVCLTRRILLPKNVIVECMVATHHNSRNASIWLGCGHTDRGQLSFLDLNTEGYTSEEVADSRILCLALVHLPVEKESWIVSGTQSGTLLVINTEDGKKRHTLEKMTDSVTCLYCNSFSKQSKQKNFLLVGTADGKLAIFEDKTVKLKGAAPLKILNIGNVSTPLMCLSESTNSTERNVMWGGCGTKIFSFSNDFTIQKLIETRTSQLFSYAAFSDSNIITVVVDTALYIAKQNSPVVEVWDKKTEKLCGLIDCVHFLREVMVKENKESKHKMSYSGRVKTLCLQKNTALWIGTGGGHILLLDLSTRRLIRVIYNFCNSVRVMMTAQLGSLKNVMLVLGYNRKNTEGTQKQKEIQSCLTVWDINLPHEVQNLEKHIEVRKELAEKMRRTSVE

IC50 (LRRK2) | Ki (SYK kinase) | IC50 (MYLK) | SMILES
100 to 1000 nM | 10 to 100 nM | < 5000 nM | COc1cc(OC)c2nc(Nc3ccc(CN4CCN(C)CC4)cc3)c3n[nH]cc3c2c1 [Example #282, (6,8-Dimethoxy-2H-pyrazolo[3,4-c]quinolin-4-yl)-[4-(4-methyl-piperazin-1-ylmethyl)-phenyl]-amine]
100 to 1000 nM | 10 to 100 nM | < 5000 nM | COc1ccc2nc(Nc3ccc(C4CCN(C)CC4)cc3)c3n[nH]cc3c2c1 [Example #102, (8-Methoxy-2H-pyrazolo[3,4-c]quinolin-4-yl)-[4-(1-methyl-piperidin-4-yl)-phenyl]-amine]
100 to 1000 nM | 10 to 100 nM | < 5000 nM | COc1cccc2c1nc(Nc1ccc3[nH]cnc3c1)c1n[nH]cc12 [Example #242, (1H-benzoimidazol-5-yl)-(6-methoxy-2H-pyrazolo[3,4-c]quinolin-4-yl)-amine]
100 to 1000 nM | 10 to 100 nM | < 5000 nM | COc1ccc2nc(Nc3ccc(OC)nc3)c3n[nH]cc3c2c1 [Example #206, (8-Methoxy-2H-pyrazolo[3,4-c]quinolin-4-yl)-(6-methoxy-pyridin-3-yl)-amine]
100 to 1000 nM | < 10 nM | < 5000 nM | COc1ccc2nc(Nc3ccc(N4CCN(CC(C)C)CC4)cc3)c3n[nH]cc3c2c1 [Example #270, [4-(4-Isobutyl-piperazin-1-yl)-phenyl]-(8-methoxy-2H-pyrazolo[3,4-c]quinolin-4-yl)-amine]
100 to 1000 nM | < 10 nM | < 5000 nM | COc1cc(OC)c2nc(Nc3ccc(OC)c(OC)c3)c3n[nH]cc3c2c1 [Example #251, (3,4-Dimethoxy-phenyl)-(6,8-dimethoxy-2H-pyrazolo[3,4-c]quinolin-4-yl)-amine]
10 to 100 nM | < 10 nM | < 5000 nM | COc1cccc2c1nc(Nc1cc(C3CC3)[nH]n1)c1n[nH]cc12 [Example #169, (5-Cyclopropyl-1H-pyrazol-3-yl)-(6-methoxy-2H-pyrazolo[3,4-c]quinolin-4-yl)-amine]
100 to 1000 nM | 10 to 100 nM | < 5000 nM | Brc1ccc2nc(Nc3ccc4[nH]cnc4c3)c3n[nH]cc3c2c1 [Example #34, (1H-Benzoimidazol-5-yl)-(8-bromo-2H-pyrazolo[3,4-c]quinolin-4-yl)-amine]
100 to 1000 nM | 100 to 1000 nM | < 5000 nM | COc1cccc2c1nc(Nc1ccc3[nH]c(C)nc3c1)c1n[nH]cc12 [Example #248, (6-Methoxy-2H-pyrazolo[3,4-c]quinolin-4-yl)-(2-methyl-1H-benzoimidazol-5-yl)-amine]
100 to 1000 nM | 100 to 1000 nM | < 5000 nM | COc1ccc2nc(Nc3cccc(OCCN4CCNCC4)c3)c3n[nH]cc3c2c1 [Example #229, (8-Methoxy-2H-pyrazolo[3,4-c]quinolin-4-yl)-[3-(2-piperazin-1-yl-ethoxy)-phenyl]-amine]
10 to 100 nM | 10 to 100 nM | < 5000 nM | COc1ccc2nc(Nc3ccc(C(=O)N(C)CCN(C)C)cc3)c3n[nH]cc3c2c1 [Example #300, N-(2-(dimethylamino)ethyl)-4-((8-methoxy-2H-pyrazolo[3,4-c]quinolin-4-yl)amino)-N-methylbenzamide]
100 to 1000 nM | 10 to 100 nM | < 5000 nM | COc1ccc2nc(Nc3ccc(CN(C)C)cc3)c3n[nH]cc3c2c1 [Example #185, (4-Dimethylaminomethyl-phenyl)-(8-methoxy-2H-pyrazolo[3,4-c]quinolin-4-yl)-amine]
10 to 100 nM | 10 to 100 nM | < 5000 nM | COc1ccc2nc(Nc3ccc(CN4CCOCC4)cc3)c3n[nH]cc3c2c1 [Example #237, (8-Methoxy-2H-pyrazolo[3,4-c]quinolin-4-yl)-(4-morpholin-4-ylmethyl-phenyl)-amine]
100 to 1000 nM | 100 to 1000 nM | < 5000 nM | COc1cccc2c1nc(Nc1ccc3c(c1)OCCO3)c1n[nH]cc12 [Example #258, (2,3-Dihydro-benzo[1,4]dioxin-6-yl)-(6-methoxy-2H-pyrazolo[3,4-c]quinolin-4-yl)-amine]
100 to 1000 nM | 10 to 100 nM | < 5000 nM | COc1cccc2c1nc(Nc1ccc3c(c1)NC(=O)CCC3)c1n[nH]cc12 [Example #241, 8-((6-methoxy-2H-pyrazolo[3,4-c]quinolin-4-yl)amino)-4,5-dihydro-1H-benzo[b]azepin-2(3H)-one]
100 to 1000 nM | 10 to 100 nM | < 5000 nM | COc1ccc2nc(Nc3ccc(C(=O)N4CCOCC4)cc3)c3n[nH]cc3c2c1 [Example #232, [4-(8-Methoxy-2H-pyrazolo[3,4-c]quinolin-4-ylamino)-phenyl]-morpholin-4-yl-methanone]

IC50 (LRRK2) | Ki (SYK kinase) | IC50 (MYLK) | SMILES
100 to 1000 nM | 10 to 100 nM | < 5000 nM | COc1ccc2nc(Nc3ccc(OC4CCN(C)CC4)cc3)c3n[nH]cc3c2c1 [Example #163, (8-Methoxy-2H-pyrazolo[3,4-c]quinolin-4-yl)-[4-(1-methyl-piperidin-4-yloxy)-phenyl]-amine]
100 to 1000 nM | 10 to 100 nM | < 5000 nM | COc1ccc2nc(Nc3ccc(OC)c(OC)c3)c3n[nH]cc3c2c1 [Example #53, (3,4-Dimethoxy-phenyl)-(8-methoxy-2H-pyrazolo[3,4-c]quinolin-4-yl)-amine]
10 to 100 nM | 10 to 100 nM | < 5000 nM | COc1ccc2nc(Nc3ccc(N4CCN(CC(=O)O)CC4)cc3)c3n[nH]cc3c2c1 [Example #277, 2-(4-(4-((8-methoxy-2H-pyrazolo[3,4-c]quinolin-4-yl)amino)phenyl)piperazin-1-yl)acetic-acid]
10 to 100 nM | 10 to 100 nM | < 5000 nM | COc1cccc2nc(Nc3ccc4c(c3)NC(=O)CC4)c3[nH]ncc3c12 [Example #339, 7-((9-methoxy-3H-pyrazolo[3,4-c]quinolin-4-yl)amino)-3,4-dihydroquinolin-2(1H)-one]
100 to 1000 nM | 10 to 100 nM | < 5000 nM | COc1ccc2nc(Nc3ccc(N4CCN(C(C)(C)C)CC4)cc3)c3n[nH]cc3c2c1 [Example #273, [4-(4-tert-Butyl-piperazin-1-yl)-phenyl]-(8-methoxy-2H-pyrazolo[3,4-c]quinolin-4-yl)-amine]
100 to 1000 nM | 10 to 100 nM | < 5000 nM | COc1ccc2nc(Nc3ccc4[nH]ncc4c3)c3n[nH]cc3c2c1 [Example #38, (1H-Indazol-5-yl)-(8-methoxy-2H-pyrazolo[3,4-c]quinolin-4-yl)-amine]
100 to 1000 nM | 10 to 100 nM | < 5000 nM | COc1ccc2nc(Nc3ccc(OC4CCN(C)CC4)nc3)c3n[nH]cc3c2c1 [Example #255, (8-Methoxy-2H-pyrazolo[3,4-c]quinolin-4-yl)-[6-(1-methyl-piperidin-4-yloxy)-pyridin-3-yl]-amine]
100 to 1000 nM | 100 to 1000 nM | < 5000 nM | COc1cccc2nc(Nc3cccc(S(C)(=O)=O)c3)c3[nH]ncc3c12 [Example #338, 9-methoxy-N-(3-(methylsulfonyl)phenyl)-3H-pyrazolo[3,4-c]quinolin-4-amine]
10 to 100 nM | 10 to 100 nM | < 5000 nM | COc1cccc2nc(Nc3ccc(CN(C)C)cc3)c3[nH]ncc3c12 [Example #353, N-(4-((dimethylamino)methyl)phenyl)-9-methoxy-3H-pyrazolo[3,4-c]quinolin-4-amine]
100 to 1000 nM | < 10 nM | < 5000 nM | CCN(CC)CCNC(=O)c1ccc(Nc2nc3ccc(OC)cc3c3c[nH]nc23)cc1 [Example #222, N-(2-Diethylamino-ethyl)-4-(8-methoxy-2H-pyrazolo[3,4-c]quinolin-4-ylamino)-benzamide]
100 to 1000 nM | 10 to 100 nM | < 5000 nM | COc1cc(OC)c2nc(Nc3ccc(CN(C)C)cc3)c3n[nH]cc3c2c1 [Example #284, (6,8-Dimethoxy-2H-pyrazolo[3,4-c]quinolin-4-yl)-(4-dimethylaminomethyl-phenyl)-amine]
100 to 1000 nM | 10 to 100 nM | < 5000 nM | COc1ccc2nc(Nc3ccc4nc(C)[nH]c4c3)c3n[nH]cc3c2c1 [Example #55, (8-Methoxy-2H-pyrazolo[3,4-c]quinolin-4-yl)-(2-methyl-3H-benzoimidazol-5-yl)-amine]
100 to 1000 nM | 10 to 100 nM | < 5000 nM | COc1ccc(Nc2nc3cc(OC)c(OC)cc3c3c[nH]nc23)cc1OC [Example #122, (3,4-Dimethoxy-phenyl)-(7,8-dimethoxy-2H-pyrazolo[3,4-c]quinolin-4-yl)-amine]
100 to 1000 nM | 10 to 100 nM | < 5000 nM | COc1ccc2nc(Nc3ccc4c(c3)CN(C)C4)c3n[nH]cc3c2c1 [Example #294, 8-methoxy-N-(2-methylisoindolin-5-yl)-2H-pyrazolo[3,4-c]quinolin-4-amine]
10 to 100 nM | 10 to 100 nM | < 5000 nM | COc1ccc2nc(Nc3cccc(NC(C)=O)c3)c3[nH]ncc3c2c1 [Example #120, N-[3-(8-Methoxy-3H-pyrazolo[3,4-c]quinolin-4-ylamino)-phenyl]-acetamide]
100 to 1000 nM | 100 to 1000 nM | < 5000 nM | COc1ccc2nc(Nc3cccc(C(=N)N)c3)c3n[nH]cc3c2c1 [Example #49, 3-(8-Methoxy-2H-pyrazolo[3,4-c]quinolin-4-ylamino)-benzamidine]
